Consider two molecules from PMC3439991 (Thrombosis, 2012).

Read-outs that look alike come from different tables or passages of the source.

For data set [1] the following is noted: pig, in vivo, sc. The source says: Furthermore, systemic effects as bleeding were investigated by examination of all major tissues and organs.
Data set [2] can be described thus: Cumulative urine excretion of argatroban, by ecarin clotting time (ECT). The settings on record: pigs, s.c., similar for both formulations. It is filed as in vivo. Here is the method:
The blood samples were drawn into plastic tubes containing 3.13% sodium citrate before dosing and at definite time intervals thereafter. Then, blood samples were centrifuged (1000 g for 10 min) to obtain citrated plasma. Urine samples were also collected using a bladder catheter and frozen at −20°C until further analysis.
Furthermore, antithrombin activity in plasma samples was also determined by ecarin chromogenic assay (ECA).

The conditions of data set [3]: cited from earlier work.
For data set [4] the following is noted: cited from earlier work. This is another data set of the same source.
The mark [5] stands for this setting: after subcutaneous administration.

`CC1CNc2c(cccc2S(=O)(=O)N[C@@H](CCCNC(=N)N)C(=O)N2CC[C@@H](C)C[C@@H]2C(=O)O)C1` (stereo partly drawn) [Argatroban]: in data set [1], the “Local bleeding, toxic reactions, and other side effects” value is recorded as “not observed”. Besides, in data set [2], the “administered antithrombotic active amount recovered in urine (cumulative)” value is recorded as 15–20%. The solubility in water entry in data set [3] is reported as “about 1 mg·mL^−1”.

In the case of hirudin, the half-life entry in data set [4] (administered intravenously) is “about 60 min”. In addition, in data set [4] (setting [5]), the half-life was 2 h; the “period of stable plasma concentrations and antithrombotic activity” value is “approximately 12 hours”.
